Publication PMC10835127, “Viruses traverse the human proteome through peptide interfaces that can be biomimetically leveraged for drug discovery” (Proceedings of the National Academy of Sciences of the …, 2024)
In brackets after ≈: the same amount, converted by molar mass. Read-outs that look alike come from different tables or passages of the source.

Columns and labels:
[1] = tested on: diet-induced obese model of NASH; test: NASH mouse model (AMLN diet-induced obese); type: in vivo, C57BL/6JRj mice; conditions: oral, 8 wk; dEF3122 twice daily 7 or 20 mg/kg, OCA once daily 7 mg/kg; vs vehicle
Experimental: Fig. 6. Effect of the lead compound in a diet-induced obese model of NASH. Mice fed with a high fat, high fructose, and cholesterol supplemented diet for 38 wk were then treated in the last 8 wk with vehicle, dEF3122, or OCA (obeticholic acid) at indicated concentrations (n = 12 animals per group). (A and B) Histopathological mean score changes between the beginning and end of the treatment for liver portal inflammation (A) and liver portal fibrosis (B) are shown with representative stained liver sections of hematoxylin and eosin (H&E) and picrosirius red stains, respectively. (C–E) (C) Areas of kidney fibrosis at the end of the treatment are shown as % of the total area of the selected fields with representative sections of the kidney stained with picrosirius red. (D) % CD3 and (E) % F4/80 positive areas in kidneys with representative sections of CD3 and F4/80 immunostainings. *P < 0.05, **P < 0.01, and ***P < 0.001 from the T test with a preliminary nonsignificant Shapiro–Wilk test or from Wilcoxon signed–rank test otherwise.
Five-week-old male C57BL/6JRj mice were fed either chow diet or AMLN diet (40% total fat kcal of which 18.5% were trans-fat kcal, 20% fructose, and 2% cholesterol). This diet was maintained for 30 wk prior to study initiation. Three weeks prior to study initiation, liver biopsies were taken, and animals with steatosis grade <2 and fibrosis stage <1 were excluded from the study. Prior to the first administration of the test compound, stratified randomization of mice into treatment groups was performed according to collagen 1a1 (IHC) morphometry from the week 3 biopsies. Each treatment group consisted of 12 mice. For a total of 8 wk, compound dEF3122 was administered orally, twice daily at a concentration of 7 mg/kg or 20 mg/kg. OCA was administered orally, once daily at a concentration of 7 mg/kg. Animals were killed at the end of the treatment, and livers and kidneys were collected. […]
NASH histopathology and immunochemistry
Livers were fixed in 10 % neutral buffered formalin and paraffin-embedded; and sections were stained with H&E and picrosirius red to analyze their morphology. Histopathological analysis was performed by a pathologist blinded to the study. Fibrosis was evaluated by quantification of the picrosirius red positive areas. Inflammation was graded by counting the H&E positive inflammatory foci per field.
Kidneys were fixed in 4 % PFA and paraffin embedded. 4-μm sections were stained with picrosirius red. Images were acquired using a digital slide scanner (Nanozoomer S210 Digital Slide Scanner, Hamamatsu). Renal lesions were blindly examined by a renal pathologist. The extent of interstitial fibrosis was quantified using Image J software (NIH) on Sirius red scanned colored sections. In short, at least 20 random selected fields (original magnification, ×200) across the kidney cortex were analyzed per each kidney section, and the results were expressed as percentages of the total area of the selected fields.
For immunohistochemistry, 4-µm sections of paraffin-embedded kidneys were submitted for appropriate antigen retrieval by high pressure heating in a solution of Tris EDTA Tween or in a citrate solution. Then, sections were then incubated overnight at 4°C with the following antibodies: rabbit monoclonal anti-CD3 (Abcam, 1:100) and rat monoclonal anti- F4/80 (Biorad, 1:100). After washing, sections were incubated with appropriate amplification secondary antibody: biotin-coupled anti-rabbit (GE Healthcare) for CD3 and biotin-coupled anti-rat (Vector Laboratories) for F4/80, and then incubated with streptavidin coupled HRP (Southern). At the end, DAB (DAKO) staining was used to detect HRP. For quantification of CD3+ and F4/80+ renal cells, the degrees of cellular infiltrate were automatically quantified using ImageJ software (NIH) and expressed as a percentage of the surface area of the positive staining per field, in at least 10 random fields perp

[2] = Kinetic solubility; type: physicochemical; conditions: PBS pH 7.4 buffer, pH 7.4, aqueous buffer, kinetic from dmso stock
Experimental: 10 mM DMSO Stock solutions of tested compounds were distributed into filtration plate (Multiscreen Durapore 0.45µm) containing PBS pH 7.4 buffer to a final maximum concentration of 130 μM (1.3 % DMSO/buffer). Solutions or suspensions were shaken for 30 min at room temperature. The samples were filtered under vacuum into a collection plate and diluted 50 % with ACN for UV analysis. Quantification was performed against a Reference plate containing the same tested compounds fully solubilized in ACN/PBS buffer 1:1. Reference and Sample plates were analyzed by UPLC/UV-MS using a generic UPLC method. […]

[3] = Microsomal stability, human liver microsomes; type: in vitro ADME; conditions: both sexes, pH 7.4, read-out: CLint hLM
Experimental: (§1) Tested compounds (1 μM) were incubated with pooled human liver microsomes (Xenotech; pooled male and female) and pooled mouse liver microsomes (Xenotech; male CD-1 mice).
(§2) Microsomes (final protein concentrations of 0.25 and 0.5 mg/ml, 0.1 M phosphate buffer pH 7.4) containing tested compound (final substrate concentration 1 μM; final DMSO concentration 0.25 %) were preincubated at 37 °C prior to the addition of NADPH (final concentration 1 mM) to initiate the reaction. The final incubation volume was 200 μl. 3 species-specific control compounds were included with each species. At 5 time points (0, 5, 10, 20, and 40 min), reactions were stopped by transferring 50 μl of the incubation mixture into 0.5 μM carbamazepine in acetonitrile. Tested compound concentrations were analyzed by LC-MS/MS and the resulting data were used to determine the half-life and intrinsic clearance of the compound in each

[4] = Microsomal stability, mouse liver microsomes; type: in vitro ADME; conditions: male, CD-1, mouse, pH 7.4; murine liver microsomes; read-out: CLint mLM
Experimental: as §1, §2

[5] = Plasma protein binding by equilibrium dialysis, murine; type: in vitro ADME; conditions: mouse, read-out: PPB (% bound)
Experimental: The free and bound fractions of the tested compounds in mouse and human plasma were determined by equilibrium dialysis using a 96-well Teflon dialysis unit (HTDialysis plate complete unit, HT Dialysis, USA). The HTDialysis plate complete unit consists of a 96-well plate with wells vertically bisected by a semipermeable membrane (membranes strips 12 to 14 kDa) creating two chambers. A 125 μL aliquot of plasma containing tested compound at 10 μM was placed on one side and 125 μL of Dulbecco‘s phosphate buffered saline (D-PBS) on the other. The plate was incubated at 37 °C for 6 hr under gentle agitation. Then, samples from both plasma and buffer compartment were analyzed by a LC-MS/MS method to measure the free fraction and the bound fraction to the plasma proteins. […]

[6] = tested on: influenza A H1N1 virus; test: microbe, parasite or virus in culture
[7] = PK parameters in mice; type: in vivo, male Swiss (CD-1) mice; conditions: male, Swiss (CD-1), plasma, mouse
Experimental: PK parameters and tissue distribution in mice
The pharmacokinetic profiles of the tested compounds were evaluated in male Swiss (CD-1) mice around 5-6 weeks old (3 animals per sampling time). […]
0.2 % Tween 80 in water. Blood samples were collected (0.25 mL) from the sinus retro-orbital […]
24 hr for p.o. route. The blood samples were immediately centrifuged at 2500 rpm at +4 °C, and the plasma was stored at −80 °C. 50 μL of plasma sample was taken and 150 μL of acetonitrile was added. After protein precipitation, analysis of the molecule was performed using LC-MS/MS to determine plasma compound concentration. For liver and lung collection, 3 animals per group were involved and sampled after 2 hr and 24 hr upon 20 mg/kg p.o. administration. Animals were perfused with around 10 mL of saline solution directly into the heart to extract the maximal blood sample from the liver and the lung. Animals were then sacrificed by cervical dislocation and liver

[8] = Cryopreserved hepatocyte stability, human; type: in vitro ADME; conditions: cryopreserved hepatocytes, read-out: CLint hHep
Experimental: (§3) Cryopreserved hepatocyte stability
(§4) Tested compounds (1 μM) were incubated with human cryopreserved hepatocytes (pool of 5) (IVT Celsis) and mouse cryopreserved hepatocytes (IVT Celsis). Hepatocytes (1, 0.5 or 0.25 x10^6 cells/mL, Williams’ Medium E (WME) with 4 mM L-glutamine and 2 mM magnesium sulphate) containing tested compound (final substrate concentration 1 μM; final DMSO concentration 0.25 %) were preincubated at 37 °C. The final incubation volume was 500 μl. 3 species-specific control compounds were included with each species. At 7 time points (0, 10, 20, 40, 60, 90, and 120 min), reactions were stopped by transferring 50 μl of the incubation mixture into 0.5 μM carbamazepine in cold acetonitrile. Tested compound concentrations were analyzed by LC-MS/MS and the resulting data were used to determine the half-life and intrinsic clearance of the compound in each species. […]

[9] = Cryopreserved hepatocyte stability, mouse; type: in vitro ADME; conditions: cryopreserved hepatocytes, murine hepatocytes, read-out: CLint mHep
Experimental: as §3, §4

[10] = H1N1, A549, read-out: IC50 for the inhibition of influenza virus replication

Structure (SMILES) | solubility kinetic at 30 min [2] | microsomal CLint at 1 µM [3] | microsomal CLint at 1 µM [4] | fraction unbound at 6 h, 10 µM [5] | IC50 [6, 10] | also measured
CC[C@H]1[C@@H](O)[C@@H]2[C@H](CC[C@]3(C)[C@@H]([C@H](C)CCC(=O)O)CC[C@@H]23)[C@@]2(C)CC[C@@H](O)C[C@@H]12 [OCA, obeticholic acid, reference compound] |  |  |  |  |  | liver portal fibrosis [1]: significantly reduced portal fibrosis; liver portal inflammation [1]: failed to alleviate portal inflammation
COc1ccc(C(=O)Nc2sc3c(c2C(=O)O)CCC(C(C)(C)C)C3)cc1 (stereo not drawn) [dEF2665] | < 5 µM | 38 µL/min/mg | 50 µL/min/mg | 0.001 | 150 nM | 
O=C(Nc1ccc(Cl)cc1)c1c(NC(=O)C2CCCCC2C(=O)O)sc2c1CCC2 (stereo not drawn) [dEF384] | 74 µM (≈ 33.1 µg/mL) | < 14 µL/min/mg | < 20 µL/min/mg | < 0.01 | 5000 nM | half-life ([7]; iv 0.9 mg/kg, read-out: T1/2 iv (converted)): 1.08 h; Cmax ([7]; po 10 mg/kg): 31300 ng/mL; bioavailability ([7]; po 10 mg/kg, iv 0.9 mg/kg): 71%; half-life ([7]; po 10 mg/kg, read-out: T1/2 po (converted)): 1.74 h
O=C(Nc1scc(C2CCc3ccccc3C2)c1C(=O)O)c1ccccc1 (racemic) [dEF2905] | 48 µM (≈ 18.1 µg/mL) |  | 29 µL/min/mg | 0.001 |  | hepatocyte CLint at 1 µM [8]: 65 µL/min/1e6 cells; hepatocyte CLint at 1 µM [9]: < 5 µL/min/1e6 cells; half-life ([7]; iv 0.25 mg/kg, read-out: T1/2 iv (converted)): 3.8 h; Cmax ([7]; po 2 mg/kg (dose for AUC)): 1140 ng/mL; bioavailability ([7]; po 2 mg/kg, iv 0.25 mg/kg): 33%; IC50 ([6]; H1N1, A549, read-out: Neuraminidase activity assay IC50): 18 nM
CCOC(=O)c1c(NC(=O)C2CCCCC2C(=O)O)sc2c1CCC(C(C)(C)C)C2 (stereo not drawn) [dEF2586] | 173 µM (≈ 75.4 µg/mL) |  |  |  | 3000 nM | 
